Measurements reported in article PMC6110851, “An Optimized MicroPET Imaging Method for the Distribution and Synergies of Natural Products” (Frontiers in Pharmacology, 2018).
Where two headings read alike, the source gives them in different places.

Experiments:
[1] = Safety evaluation during the MicroPET experiment (vital signs, electrocardiograms); type: in vivo, mice
[2] = MicroPET distribution of [^18F]-GA after PG polysaccharides intervention; type: in vivo, mice; settings: for tissue uptake at 1 h / tissue uptake at 168 h: po; for tissue uptake at 1 h: read-out: %ID/g of [^18F]-GA in the lungs, OA; for tissue uptake at 168 h: PG polysaccharides orally for 7 days, read-out: %ID/g of [^18F]-GA in the lungs, LA
Procedure: The mice were grouped by weight and housed in cages of the climate control room (25°C), with a photoperiod 12:12-h. During feeding, mice were free to access food and water. Mice were fasted for 24 h before the experiment. The mice were anesthetized with 4% isoflurane while preparing for scanning ([Constantinescu et al., 2013b]; [Cui et al., 2017]). Eighteen healthy male Kunming mice, weighing 20 ± 2 g, were divided into three groups, which were control group, once-administered (OA) group and long-term administration (LA) group. In the OA group, 1 h before the administration of [^18F]-GA, the mice were orally treated with PG polysaccharides. In the LA group, the mice were orally given the PG polysaccharides for 7 days, but not before the administration of [^18F]-GA.
Rice received a tail vein injection (8.67 ± 2.14 MBq/μg) of [^18F]-GA and placed in the scanner bed and mouse-imaging room immediately ([Constantinescu et al., 2013b]; [O’Doherty et al., 2017]). Firstly, 2 h PET scanning was performed using an Inveon-dedicated PET scanner. The average delay between injection and starting of PET scanning was 3.5 min. Rice were maintained stable under 4% isoflurane anesthesia throughout scanning. The PET list-mode data were dynamically classified into 23 3D sinograms of span and three ring difference. After Fourier recombination, the data were reconstructed using a 2D ordered-subset expectation maximization algorithm. Random events were excluded before reconstruction. The response of detector is normalized using a component-based approach. All dynamic images were corrected for radioactive decay automatically. The PET images were reconstructed by a cone beam algorithm into 480 × 480 × 632 image arrays. After the reconstruction, images were spatially transformed to match the PET images ([Constantinescu et al., 2013a],[b]).
The reconstruction of the image was performed using the PMOD software (PMOD Technologies). The 3D volumes of interest (VOIs) were drawn manually of the following organs: brain, heart, liver, lungs, kidneys, cortical bone, and gallbladder. The organs were carefully identified and VOIs were drawn as irregular contours on high-resolution PET images obtained from each mouse ([Constantinescu et al., 2013b]; [Garg et al., 2017]). The size of each VOI was less than the actual size of each organ to minimize the effects of PET on adjacent organ spills. The VOIs drawing was verified by a second operator. The VOIs of cortical bone were generated by first using PET image to depict the entire femur bone ([Constantinescu et al., 2013b]). The VOI was transferred to a dynamic PET image and the mean time-activity curve (TAC) of the decay correction was extracted for each target organ ([Constantinescu et al., 2013b]).

time from which lung %ID/g of OA group differs significantly ([2]; OA vs. Con, Table 2): 7 min
[^18F]-GA concentration of lung, OA group relative to LA group ([2]; area under the curve, OA: PG polysaccharides 1 h before, LA: for 7 days): 2 times
[^18F]-GA concentration of lung, OA group relative to control mice ([2]; area under the curve, PG polysaccharides orally 1 h before [^18F]-GA): 2.7 times
tissue uptake at 60 s ([2]; male, Kunming, mouse, lungs, intravenous, mice, control group, Time(s) 60, read-out: %ID/g of [^18F]-GA in the lungs, Con): 8.86 %ID/g
tissue uptake at 180 s ([2]; male, Kunming, mouse, lungs, intravenous, mice, control group, Time(s) 180, read-out: %ID/g of [^18F]-GA in the lungs, Con): 4.36 %ID/g
tissue uptake at 300 s ([2]; male, Kunming, mouse, lungs, intravenous, mice, control group, Time(s) 300, read-out: %ID/g of [^18F]-GA in the lungs, Con): 3.29 %ID/g
tissue uptake at 420 s ([2]; male, Kunming, mouse, lungs, intravenous, mice, control group, Time(s) 420, read-out: %ID/g of [^18F]-GA in the lungs, Con): 2.78 %ID/g
tissue uptake at 540 s ([2]; male, Kunming, mouse, lungs, intravenous, mice, control group, Time(s) 540, read-out: %ID/g of [^18F]-GA in the lungs, Con): 2.42 %ID/g
tissue uptake at 780 s ([2]; male, Kunming, mouse, lungs, intravenous, mice, control group, Time(s) 780, read-out: %ID/g of [^18F]-GA in the lungs, Con): 2.1 %ID/g
tissue uptake at 900 s ([2]; male, Kunming, mouse, lungs, intravenous, mice, control group, Time(s) 900, read-out: %ID/g of [^18F]-GA in the lungs, Con): 2.15 %ID/g
tissue uptake at 1020 s ([2]; male, Kunming, mouse, lungs, intravenous, mice, control group, Time(s) 1020, read-out: %ID/g of [^18F]-GA in the lungs, Con): 2.09 %ID/g
tissue uptake at 1140 s ([2]; male, Kunming, mouse, lungs, intravenous, mice, control group, Time(s) 1140, read-out: %ID/g of [^18F]-GA in the lungs, Con): 1.9 %ID/g
tissue uptake at 1350 s ([2]; male, Kunming, mouse, lungs, intravenous, mice, control group, Time(s) 1350, read-out: %ID/g of [^18F]-GA in the lungs, Con): 1.75 %ID/g
tissue uptake at 1650 s ([2]; male, Kunming, mouse, lungs, intravenous, mice, control group, Time(s) 1650, read-out: %ID/g of [^18F]-GA in the lungs, Con): 1.66 %ID/g
tissue uptake at 1950 s ([2]; male, Kunming, mouse, lungs, intravenous, mice, control group, Time(s) 1950, read-out: %ID/g of [^18F]-GA in the lungs, Con): 1.55 %ID/g
tissue uptake at 2250 s ([2]; male, Kunming, mouse, lungs, intravenous, mice, control group, Time(s) 2250, read-out: %ID/g of [^18F]-GA in the lungs, Con): 1.51 %ID/g
tissue uptake at 2700 s ([2]; male, Kunming, mouse, lungs, intravenous, mice, control group, Time(s) 2700, read-out: %ID/g of [^18F]-GA in the lungs, Con): 1.34 %ID/g
tissue uptake at 3300 s ([2]; male, Kunming, mouse, lungs, intravenous, mice, control group, Time(s) 3300, read-out: %ID/g of [^18F]-GA in the lungs, Con): 1.26 %ID/g
tissue uptake at 3900 s ([2]; male, Kunming, mouse, lungs, intravenous, mice, control group, Time(s) 3900, read-out: %ID/g of [^18F]-GA in the lungs, Con): 1.23 %ID/g
tissue uptake at 4500 s ([2]; male, Kunming, mouse, lungs, intravenous, mice, control group, Time(s) 4500, read-out: %ID/g of [^18F]-GA in the lungs, Con): 1.05 %ID/g
tissue uptake at 5100 s ([2]; male, Kunming, mouse, lungs, intravenous, mice, control group, Time(s) 5100, read-out: %ID/g of [^18F]-GA in the lungs, Con): 1.04 %ID/g
tissue uptake at 5700 s ([2]; male, Kunming, mouse, lungs, intravenous, mice, control group, Time(s) 5700, read-out: %ID/g of [^18F]-GA in the lungs, Con): 1.02 %ID/g
tissue uptake at 6300 s ([2]; male, Kunming, mouse, lungs, intravenous, mice, control group, Time(s) 6300, read-out: %ID/g of [^18F]-GA in the lungs, Con): 0.97 %ID/g
tissue uptake at 6900 s ([2]; male, Kunming, mouse, lungs, intravenous, mice, control group, Time(s) 6900, read-out: %ID/g of [^18F]-GA in the lungs, Con): 0.94 %ID/g
tissue uptake at 1 h ([2]; male, Kunming, mouse, lungs, mice, PG polysaccharides orally 1 h before [^18F]-GA, Time(s) 60): 8.21 %ID/g
tissue uptake at 1 h ([2]; male, Kunming, mouse, lungs, mice, PG polysaccharides orally 1 h before [^18F]-GA, Time(s) 180): 5.95 %ID/g
tissue uptake at 1 h ([2]; male, Kunming, mouse, lungs, mice, PG polysaccharides orally 1 h before [^18F]-GA, Time(s) 300): 5.53 %ID/g
tissue uptake at 1 h ([2]; male, Kunming, mouse, lungs, mice, PG polysaccharides orally 1 h before [^18F]-GA, Time(s) 420): 5.2 %ID/g
tissue uptake at 1 h ([2]; male, Kunming, mouse, lungs, mice, PG polysaccharides orally 1 h before [^18F]-GA, Time(s) 540): 4.85 %ID/g
tissue uptake at 1 h ([2]; male, Kunming, mouse, lungs, mice, PG polysaccharides orally 1 h before [^18F]-GA, Time(s) 660): 4.63 %ID/g
tissue uptake at 1 h ([2]; male, Kunming, mouse, lungs, mice, PG polysaccharides orally 1 h before [^18F]-GA, Time(s) 780): 4.54 %ID/g
tissue uptake at 1 h ([2]; male, Kunming, mouse, lungs, mice, PG polysaccharides orally 1 h before [^18F]-GA, Time(s) 900): 4.53 %ID/g
tissue uptake at 1 h ([2]; male, Kunming, mouse, lungs, mice, PG polysaccharides orally 1 h before [^18F]-GA, Time(s) 1020): 4.35 %ID/g
tissue uptake at 1 h ([2]; male, Kunming, mouse, lungs, mice, PG polysaccharides orally 1 h before [^18F]-GA, Time(s) 1140): 4.25 %ID/g
tissue uptake at 1 h ([2]; male, Kunming, mouse, lungs, mice, PG polysaccharides orally 1 h before [^18F]-GA, Time(s) 1350): 4.17 %ID/g
tissue uptake at 1 h ([2]; male, Kunming, mouse, lungs, mice, PG polysaccharides orally 1 h before [^18F]-GA, Time(s) 1650): 4.06 %ID/g
tissue uptake at 1 h ([2]; male, Kunming, mouse, lungs, mice, PG polysaccharides orally 1 h before [^18F]-GA, Time(s) 1950): 3.95 %ID/g
tissue uptake at 1 h ([2]; male, Kunming, mouse, lungs, mice, PG polysaccharides orally 1 h before [^18F]-GA, Time(s) 2250): 3.79 %ID/g
tissue uptake at 1 h ([2]; male, Kunming, mouse, lungs, mice, PG polysaccharides orally 1 h before [^18F]-GA, Time(s) 2700): 3.54 %ID/g
tissue uptake at 1 h ([2]; male, Kunming, mouse, lungs, mice, PG polysaccharides orally 1 h before [^18F]-GA, Time(s) 3300): 3.17 %ID/g
tissue uptake at 1 h ([2]; male, Kunming, mouse, lungs, mice, PG polysaccharides orally 1 h before [^18F]-GA, Time(s) 3900): 3.06 %ID/g
tissue uptake at 1 h ([2]; male, Kunming, mouse, lungs, mice, PG polysaccharides orally 1 h before [^18F]-GA, Time(s) 4500): 3.07 %ID/g
tissue uptake at 1 h ([2]; male, Kunming, mouse, lungs, mice, PG polysaccharides orally 1 h before [^18F]-GA, Time(s) 5100): 2.96 %ID/g
tissue uptake at 1 h ([2]; male, Kunming, mouse, lungs, mice, PG polysaccharides orally 1 h before [^18F]-GA, Time(s) 5700): 2.88 %ID/g
tissue uptake at 1 h ([2]; male, Kunming, mouse, lungs, mice, PG polysaccharides orally 1 h before [^18F]-GA, Time(s) 6300): 2.95 %ID/g
tissue uptake at 1 h ([2]; male, Kunming, mouse, lungs, mice, PG polysaccharides orally 1 h before [^18F]-GA, Time(s) 6900): 2.85 %ID/g
tissue uptake at 168 h ([2]; male, Kunming, mouse, lungs, mice, Time(s) 60): 8.74 %ID/g
tissue uptake at 168 h ([2]; male, Kunming, mouse, lungs, mice, Time(s) 180): 4.38 %ID/g
tissue uptake at 168 h ([2]; male, Kunming, mouse, lungs, mice, Time(s) 300): 3.63 %ID/g
tissue uptake at 168 h ([2]; male, Kunming, mouse, lungs, mice, Time(s) 420): 3.15 %ID/g
tissue uptake at 168 h ([2]; male, Kunming, mouse, lungs, mice, Time(s) 540): 2.85 %ID/g
tissue uptake at 168 h ([2]; male, Kunming, mouse, lungs, mice, Time(s) 660): 2.9 %ID/g
tissue uptake at 168 h ([2]; male, Kunming, mouse, lungs, mice, Time(s) 780): 2.51 %ID/g
tissue uptake at 168 h ([2]; male, Kunming, mouse, lungs, mice, Time(s) 900): 2.49 %ID/g
tissue uptake at 168 h ([2]; male, Kunming, mouse, lungs, mice, Time(s) 1020): 2.35 %ID/g
tissue uptake at 168 h ([2]; male, Kunming, mouse, lungs, mice, Time(s) 1140): 2.19 %ID/g
tissue uptake at 168 h ([2]; male, Kunming, mouse, lungs, mice, Time(s) 1350): 2.16 %ID/g
tissue uptake at 168 h ([2]; male, Kunming, mouse, lungs, mice, Time(s) 1650): 2.06 %ID/g
tissue uptake at 168 h ([2]; male, Kunming, mouse, lungs, mice, Time(s) 1950): 1.89 %ID/g
tissue uptake at 168 h ([2]; male, Kunming, mouse, lungs, mice, Time(s) 2250): 1.78 %ID/g
tissue uptake at 168 h ([2]; male, Kunming, mouse, lungs, mice, Time(s) 2700): 1.7 %ID/g
tissue uptake at 168 h ([2]; male, Kunming, mouse, lungs, mice, Time(s) 3300): 1.48 %ID/g
tissue uptake at 168 h ([2]; male, Kunming, mouse, lungs, mice, Time(s) 3900): 1.33 %ID/g
tissue uptake at 168 h ([2]; male, Kunming, mouse, lungs, mice, Time(s) 4500): 1.24 %ID/g
tissue uptake at 168 h ([2]; male, Kunming, mouse, lungs, mice, Time(s) 5100): 1.18 %ID/g
tissue uptake at 168 h ([2]; male, Kunming, mouse, lungs, mice, Time(s) 5700): 1.06 %ID/g
tissue uptake at 168 h ([2]; male, Kunming, mouse, lungs, mice, Time(s) 6300): 1.11 %ID/g
tissue uptake at 168 h ([2]; male, Kunming, mouse, lungs, mice, Time(s) 6900): 1.05 %ID/g
%ID/g of [^18F]-GA in the lungs, Con ([2]; mice, control group, Time(s) 660): 2.45 %ID/g
change of [^18F]-GA concentration in other organs after PG polysaccharides intervention ([2]; organs other than lung): no significant change in other organs
SMILES: CC1(C)[C@@H](O)CC[C@]2(C)[C@H]3C(=O)C=C4[C@@H]5C[C@@](C)(C(=O)NCCCC[18F])CC[C@]5(C)CC[C@@]4(C)[C@]3(C)CC[C@@H]12 [[^18F]-GA, [^18F]-Glycyrrhetinic acid]
change in vital signs or electrocardiograms [1]: no change in vital signs or electrocardiograms significantly
ranking of organ concentration (area under the curve) ([2]; control group, mice): concentration of liver was highest, and the lung was lowest
